Experimental data as given in patent US5801016A, “DNA fragment, recombinant vector containing the same and method for expressing foreign genes using the same” (Japan Tobacco Inc., priority 1995, dated 1998).

Key:
[1] = target: T1, rice (Oryza sativa) bran phospholipase D (PLD), purified fraction Mono Q 2nd-I (Oryza sativa subsp. japonica, UniProt Q43007); test: PLD enzyme activity with phosphatidylcholine as substrate, quantifying the choline generated; assay type: biochemical; details: eluted solution Mono Q 2nd-I
T1 construct: bran of rice (Oryza sativa); from tissue; host or cells: rice (Oryza sativa) bran, variety KOSHIHIKARI, purified to Mono Q 2nd-I
T1 sequence (Q43007 47-812): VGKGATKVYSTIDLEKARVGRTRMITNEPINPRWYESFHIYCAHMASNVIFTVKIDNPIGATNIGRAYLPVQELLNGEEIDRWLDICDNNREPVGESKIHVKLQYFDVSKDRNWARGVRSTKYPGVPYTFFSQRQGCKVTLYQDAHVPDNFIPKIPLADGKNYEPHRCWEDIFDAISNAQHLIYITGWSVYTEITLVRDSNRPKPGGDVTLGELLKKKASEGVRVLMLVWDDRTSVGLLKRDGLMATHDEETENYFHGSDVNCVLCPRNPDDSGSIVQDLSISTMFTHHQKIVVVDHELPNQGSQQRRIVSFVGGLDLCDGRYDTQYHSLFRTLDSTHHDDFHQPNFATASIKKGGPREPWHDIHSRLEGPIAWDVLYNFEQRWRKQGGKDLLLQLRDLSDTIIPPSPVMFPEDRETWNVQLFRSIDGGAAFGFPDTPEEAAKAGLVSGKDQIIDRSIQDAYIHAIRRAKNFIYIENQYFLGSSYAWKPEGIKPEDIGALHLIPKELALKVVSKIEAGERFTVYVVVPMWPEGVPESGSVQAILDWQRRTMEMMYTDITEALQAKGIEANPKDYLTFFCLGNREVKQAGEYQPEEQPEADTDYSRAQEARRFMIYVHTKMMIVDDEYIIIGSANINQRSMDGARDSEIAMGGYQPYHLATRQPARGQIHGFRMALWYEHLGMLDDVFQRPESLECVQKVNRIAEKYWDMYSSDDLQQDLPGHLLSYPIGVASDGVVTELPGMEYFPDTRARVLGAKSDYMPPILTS
Experimental: (§1) For purification, a reference (Takano et al., Journal of Japan Food Industry Association, 34, 8-13 (1987) was referred. The enzyme activity was measured by employing phosphatidylcholine as a substrate and quantifying the choline generated by the enzyme reaction (Imamura et al., J. Biochem. 83, 677-680 (1978)). It should be noted, however, the enzyme reaction was stopped by heat treatment at 95° C. for 5 minutes.
(§2) Properties of the enzymes contained in the two fractions were determined. The buffer solutions used for the measurement of the optimum pH were sodium acetate (pH 4-6), MES-NaOH (pH 5.5-7.0) and Tris-HCl (pH 7-9), all of which have a concentration of 100 mM in all of the buffer solutions. The pH stability means the pH range in which decrease in the enzyme activity is not observed after leaving the enzyme at the respective pH at 25° C. for 30 minutes. The temperature stability was measured by measuring the remaining activity after leaving the enzyme to stand at 4° C., 25° C., 37° C. or 50° C. for 30 minutes. The substrate specificity was measured at a substrate concentration of 5 mM and expressed in terms of the relative activity taking the enzyme activity to phosphatidylcholine as 100.

[2] = target: T2, rice (Oryza sativa) bran phospholipase D (PLD), purified fraction Mono Q 2nd-II (Oryza sativa subsp. japonica, UniProt Q43007); test: as above; assay type: biochemical; details: eluted solution Mono Q 2nd-II
T2 construct: bran of rice (Oryza sativa); from tissue; host or cells: rice (Oryza sativa) bran, variety KOSHIHIKARI, purified to Mono Q 2nd-II
T2 sequence (Q43007 47-812): T1 sequence (Q43007 47-812)
Experimental: as §1, §2

phosphatidylcholine
Km [1]: 290 µM
Km [2]: 290 µM
